Measurements published in patent US8048862B2, “Macrocyclic inhibitors of hepatitis C virus replication” (priority 2008, dated 2011).
Like-named read-outs stand apart in the source and are kept apart here.

Key:
hepatitis C replicon = hepatitis C replicon EC50; type: cell-based; details: Hepatitis C virus
Excerpt: NS3-NS4 inhibition activity can be determined using known assay methods.

NS3/NS4 complexes = NS3/NS4 complexes (Hepatitis C virus genotype 1a, UniProt P27958); experiment: NS3/NS4 inhibition activity (IC50); type: biochemical; details: Table 3, read-out: IC50
Sequence of NS3/NS4 complexes (P27958 1027-1657): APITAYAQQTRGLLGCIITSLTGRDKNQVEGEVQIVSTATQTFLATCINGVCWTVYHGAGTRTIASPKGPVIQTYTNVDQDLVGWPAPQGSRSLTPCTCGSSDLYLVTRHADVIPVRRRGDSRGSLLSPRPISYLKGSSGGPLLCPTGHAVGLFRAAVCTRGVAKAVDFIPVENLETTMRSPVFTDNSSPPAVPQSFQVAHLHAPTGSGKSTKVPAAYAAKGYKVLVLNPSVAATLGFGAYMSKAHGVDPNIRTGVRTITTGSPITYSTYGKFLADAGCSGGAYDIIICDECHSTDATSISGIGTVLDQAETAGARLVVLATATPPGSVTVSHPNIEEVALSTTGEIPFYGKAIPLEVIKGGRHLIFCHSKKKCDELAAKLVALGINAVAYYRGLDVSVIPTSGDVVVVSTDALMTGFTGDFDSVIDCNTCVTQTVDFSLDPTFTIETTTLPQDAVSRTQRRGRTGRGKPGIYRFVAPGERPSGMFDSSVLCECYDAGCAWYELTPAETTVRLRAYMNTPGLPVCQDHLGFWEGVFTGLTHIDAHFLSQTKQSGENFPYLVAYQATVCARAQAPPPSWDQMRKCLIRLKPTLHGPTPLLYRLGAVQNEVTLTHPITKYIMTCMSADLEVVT
Sequence of NS3/NS4 complexes (P27958 1658-1711): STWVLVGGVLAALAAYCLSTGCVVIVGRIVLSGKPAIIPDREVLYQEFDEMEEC
In short: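 NS3/NS4 complexes were formed and compound inhibitory concentrations determined at ambient temperature (23 °C). The buffer contained 50 mM Tris-HCl pH 7.5, 15% glycerol, 0.6 mM LDAO, 25 μM NS4A peptide and 10 mM DTT.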

[1] = Table 3, hepatitis C replicon, read-out: EC50

| SMILES | EC50 (hepatitis C replicon; [1]) | IC50 (NS3/NS4 complexes) | EC50 (hepatitis C replicon) |
| --- | --- | --- | --- |
| COc1ccc2c(O[C@@H]3C[C@H]4C(=O)N[C@]5(C(=O)NS(=O)(=O)C6(C)CC6)C[C@H]5/C=C\CCCCC[C@H](NC(=O)OC(C)(C)C)C(=O)N4C3)cc(-c3nc(C(C)C)cs3)nc2c1C [Compound 1078] | < 10 nM | < 10 nM |  |
| CC(C)(C)OC(=O)N[C@H]1CCCCC/C=C\[C@@H]2C[C@@]2(C(=O)NS(=O)(=O)C2(C)CC2)NC(=O)[C@@H]2C[C@@H](Oc3nc4ccccc4[nH]3)CN2C1=O [Compound 1079] |  | < 10 nM | > 100 nM |
| CCn1c(O[C@@H]2C[C@H]3C(=O)N[C@]4(C(=O)NS(=O)(=O)C5(C)CC5)C[C@H]4CCCCCCC[C@H](NC(=O)OC(C)(C)C)C(=O)N3C2)nc2ccccc21 [Compound 1080] | < 10 nM | < 10 nM |  |
| CC(C)(C)OC(=O)N[C@H]1CCCCCCC[C@@H]2C[C@@]2(C(=O)NS(=O)(=O)C2(C)CC2)NC(=O)[C@@H]2C[C@@H](OC(=O)N3Cc4cccc(F)c4C3)CN2C1=O [Compound 1081] | < 10 nM | < 10 nM |  |
| CC(C)(C)OC(=O)N[C@H]1CCCCC/C=C\[C@@H]2C[C@@]2(C(=O)NS(=O)(=O)CC(=O)Nc2ccccc2)NC(=O)[C@@H]2C[C@@H](OC(=O)N3Cc4cccc(F)c4C3)CN2C1=O [Compound 1082] |  | < 10 nM | > 100 nM |
| CC(C)(C)OC(=O)N[C@H]1CCCCC/C=C\[C@@H]2C[C@@]2(C(=O)NS(=O)(=O)c2ccccc2OCC(N)=O)NC(=O)[C@@H]2C[C@@H](OC(=O)N3Cc4cccc(F)c4C3)CN2C1=O [Compound 1083] | > 100 nM | < 10 nM |  |
| CNC(=O)COc1ccccc1S(=O)(=O)NC(=O)[C@@]12C[C@H]1/C=C\CCCCC[C@H](NC(=O)OC(C)(C)C)C(=O)N1C[C@H](OC(=O)N3Cc4cccc(F)c4C3)C[C@H]1C(=O)N2 [Compound 1084] | > 100 nM | < 10 nM |  |
| O=C(N[C@H]1CCCCC/C=C\[C@@H]2C[C@@]2(C(=O)NS(=O)(=O)C2CC2)NC(=O)[C@@H]2C[C@@H](OC(=O)N3Cc4cccc(F)c4C3)CN2C1=O)O[C@@H]1C[C@@H]2C[C@@H]2C1 [Compound 1085] | < 10 nM | < 10 nM |  |
| CC(C)(C)OC(=O)N[C@H]1CCCCC/C=C\[C@@H]2C[C@@]2(C(=O)NS(=O)(=O)Cc2ccccc2)NC(=O)[C@@H]2C[C@@H](OC(=O)N3Cc4cccc(F)c4C3)CN2C1=O [Compound 1086] | > 100 nM | < 10 nM |  |
| CO[C@@H]1C[C@H]2C(=O)N[C@]3(C(=O)NS(=O)(=O)C4(C)CC4)C[C@H]3/C=C\CCCCC[C@H](NC(=O)OC(C)(C)C)C(=O)N2C1 [Compound 1091] | > 100 nM | > 100 nM |  |
| CC(C)(C)OC(=O)N[C@H]1CCCCC/C=C\[C@@H]2C[C@@]2(C(=O)NS(=O)(=O)c2ccccc2OCC(N)=O)NC(=O)[C@@H]2C[C@@H](O)CN2C1=O [Compound 1093] | > 100 nM | > 100 nM |  |
| CNC(=O)COc1ccccc1S(=O)(=O)NC(=O)[C@@]12C[C@H]1/C=C\CCCCC[C@H](NC(=O)OC(C)(C)C)C(=O)N1C[C@H](O)C[C@H]1C(=O)N2 [Compound 1094] | > 100 nM | > 100 nM |  |
| CO[C@@H]1C[C@H]2C(=O)N[C@]3(C(=O)NS(=O)(=O)CC(=O)Nc4ccccc4)C[C@H]3/C=C\CCCCC[C@H](NC(=O)OC(C)(C)C)C(=O)N2C1 [Compound 1099] |  | < 10 nM | < 10 nM |
| CC1(S(=O)(=O)NC(=O)[C@@]23C[C@H]2/C=C\CCCCC[C@H](Nc2cc(F)cc(C(F)(F)F)c2)C(=O)N2C[C@H](OC(=O)N4Cc5cccc(F)c5C4)C[C@H]2C(=O)N3)CC1 [Compound 1100] | < 10 nM | < 10 nM |  |
| CC1(S(=O)(=O)NC(=O)[C@@]23C[C@H]2/C=C\CCCCC[C@H](Nc2cccc(C(N)=O)c2)C(=O)N2C[C@H](OC(=O)N4Cc5cccc(F)c5C4)C[C@H]2C(=O)N3)CC1 [Compound 1101] | 10 to 100 nM | < 10 nM |  |
| CC1(S(=O)(=O)NC(=O)[C@@]23C[C@H]2/C=C\CCCCC[C@H](Nc2ccccc2)C(=O)N2C[C@H](OC(=O)N4Cc5cccc(F)c5C4)C[C@H]2C(=O)N3)CC1 [Compound 1102] | < 10 nM | < 10 nM |  |
